These results are taken from ChEMBL document CHEMBL1126492, “Cytotoxicity of ent-udoteatrial diacetate and its analogues” (Bioorg Med Chem Lett, 1993).

SMILES strings stand for the structures. Values after ≈ are worked out from the molar mass of the structure shown. Some results are limits rather than exact numbers.

Test [1] has as its system A549. The test is described as follows: In vitro cytotoxicity against human lung carcinoma A-549 cell line. It counts as functional, cell-based.
The test system of test [2] is KB. The test is described as follows: In vitro cytotoxicity against human oral epidermoid carcinoma KB cell line. Type of test: functional, cell-based.

As usually defined, the IC50 is the concentration at which inhibition is half-maximal. Turning to `CC(=O)O[C@H]1O[C@@H]2O[C@@H](OC(C)=O)[C@@H]3CC[C@H]([C@H]1CC/C=C(\C)CCC=C(C)C)[C@H]23`, the IC50 is 0.5 µg/mL (≈ 1.19 µM) in test [1] and 0.4 µg/mL (≈ 0.951 µM) in test [2].
Consider `CC(=O)O[C@H]1O[C@@H]2O[C@@H](OC(C)=O)[C@@H]3CC[C@H]([C@@H]1C)[C@H]23`, for which the IC50 in test [1] and in test [2] was greater than 25 µg/mL in each case.
In the case of `CC(=O)O[C@@H]1O[C@@H]2O[C@@H](OC(C)=O)[C@@H]3CC[C@H]([C@H]1CC/C=C(\C)CCC=C(C)C)[C@H]23`, the IC50 in test [1] was 1.9 µg/mL (≈ 4.52 µM); in test [2] it was 1.6 µg/mL (≈ 3.8 µM).
The like results for `CC(=O)O[C@H]1O[C@@H]2O[C@@H](OC(C)=O)[C@@H]3CC[C@H]([C@@H]1CC/C=C(\C)CCC=C(C)C)[C@H]23` were, in that order, 3.9 µg/mL (≈ 9.27 µM) and 3.4 µg/mL (≈ 8.08 µM).
The like results for `CC(=O)OC1O[C@@H]2O[C@@H](OC(C)=O)[C@@H]3CC[C@@H]([C@H]23)[C@H]1C` (stereo not given in full) were, in that order, greater than 25 µg/mL and greater than 25 µg/mL.
